Laboratory results: ChEMBL document CHEMBL1132572 (J Med Chem, 1999)

Tests used:
[1] = test system: Human immunodeficiency virus 1; assay: Concentration that inhibits Human Immunodeficiency Virus Type 1 (HIV-1)-induced death of MT-2 cells; format: functional, MT2; conditions: read-out: ED50 (the source's name)
MT2 = assay: Lethal dose (LD5) concentration inhibiting growth of MT-2 cells by 5%; format: toxicity, cell-based; conditions: human
[2] = biological target: Human immunodeficiency virus type 1 integrase (Human immunodeficiency virus 1, UniProt Q7ZJM1)
Description: Inhibitory activity against Human Immunodeficiency Virus Type 1 integrase (HIV-1 IN) in the disintegration assay.

[3] = test system: Human immunodeficiency virus 1; conditions: read-out: ED50
[4] = test system: Human immunodeficiency virus 1; assay: microbe, parasite or virus in culture; conditions: Human immunodeficiency virus 1, read-out: ED50
[5] = test system: Human immunodeficiency virus 1; conditions: read-out: ED50; remark: listed apart in the source
[6] = Human immunodeficiency virus 1, MT2

Row | SMILES | EC50 [1, 6] [µM] | LD5 (MT2) [µM] | IC50 [2] [µM] | EC50 [1] [µM] | EC50 [3] [µM] | EC50 [4] [µM] | EC50 [5] [µM]
1 | O=C(O)C(O)C(O)C(=O)O (stereo not drawn) | > 1000 | > 1000 |  |  |  |  | 
2 | O=C(/C=C/c1ccc(O)c(O)c1)Oc1cc(OC(=O)/C=C/c2ccc(O)c(O)c2)cc(C(=O)O)c1 | > 75 | 100 | 6.9 |  |  |  | 
3 | O=C(OC(C(=O)O)C(OC(=O)c1ccc(F)c(F)c1)C(=O)O)c1ccc(F)c(F)c1 (stereo not drawn) | > 59.2 | 28.9 |  |  |  |  | 
4 | O=C(OC(C(=O)O)C(OC(=O)c1cc(O)ccc1O)C(=O)O)c1cc(O)ccc1O (stereo not drawn) | > 238 | > 238 |  |  |  |  | 
5 | O=C(/C=C\c1ccc(O)c(O)c1)OC1CCC(OC(=O)/C=C\c2ccc(O)c(O)c2)CC1 (stereo not drawn) | > 45 | 20.5 | 1.01 |  |  |  | 
6 | O=C(OC(C(=O)O)C(OC(=O)c1cc(O)cc(O)c1)C(=O)O)c1cc(O)cc(O)c1 (stereo not drawn) | > 119 | > 119 |  |  |  |  | 
7 | O=C(/C=C/c1cccc(O)c1)OC(C(=O)O)C(OC(=O)/C=C/c1cccc(O)c1)C(=O)O (stereo not drawn) | > 283 | 566 |  |  |  |  | 
8 | O=C(/C=C/c1ccc(O)c(O)c1)OC(C(=O)OC(c1ccccc1)c1ccccc1)C(OC(=O)/C=C/c1ccc(O)c(O)c1)C(=O)OC(c1ccccc1)c1ccccc1 (stereo not drawn) | > 37.2 | 16.1 |  |  |  |  | 
9 | COc1ccc(/C=C/C(=O)OC(C(=O)O)C(OC(=O)/C=C/c2ccc(OC)c(OC)c2)C(=O)O)cc1OC (stereo not drawn) | > 178 | 89 |  |  |  |  | 
10 | O=C(Cc1ccc(O)c(O)c1)OC(C(=O)O)C(OC(=O)Cc1ccc(O)c(O)c1)C(=O)O (stereo not drawn) |  | 70 | 0.88 | 35 | 15.6 | > 62.5 | 
11 | O=C(/C=C/c1ccc(O)c(O)c1)OC1CCCC(OC(=O)/C=C/c2ccc(O)c(O)c2)C1 (stereo not drawn) | > 34.1 | 9.1 | 1.8 |  |  |  | 
12 | O=C(/C=C\c1ccc(O)c(O)c1)OC1CCCCC1OC(=O)/C=C\c1ccc(O)c(O)c1 (stereo not drawn) | > 90.9 | 22.7 | 8.36 |  |  |  | 
13 | O=C(/C=C/c1ccc(O)c(O)c1)OCCCCOC(=O)/C=C/c1ccc(O)c(O)c1 | > 242 | 121 | > 10 |  |  |  | 
14 | O=C(CCc1ccc(O)c(O)c1)OC(C(=O)O)C(OC(=O)CCc1ccc(O)c(O)c1)C(=O)O (stereo not drawn) |  | > 263 | 2.38 | 8.4 | 7.8 |  | 31.2
15 | O=C(/C=C/c1ccc(O)c(O)c1)OC1C[C@](O)(C(=O)O)C[C@@H](O)[C@H]1OC(=O)/C=C/c1ccc(O)c(O)c1 (stereo partly drawn) | 4 | 145 | 0.6 |  |  |  | 
16 | O=C(/C=C/c1ccc(O)c(O)c1)OC1CCC(OC(=O)/C=C/c2ccc(O)c(O)c2)CC1 (stereo not drawn) | > 341 | 170 | 1.03 |  |  |  | 
17 | O=C(/C=C/c1ccc(O)c(O)c1)O[C@@H]1C[C@](O)(C(=O)O)C[C@@H](OC(=O)/C=C/c2ccc(O)c(O)c2)[C@H]1O | 2 | 290 | 1.3 |  |  |  | 

Row | SMILES | EC50 [1, 6] [µM] | LD5 (MT2) [µM] | IC50 [2] [µM] | EC50 [1] [µM] | EC50 [3] [µM] | EC50 [4] [µM] | EC50 [5] [µM]
18 | O=C(/C=C/c1ccc(O)c(O)c1)OCCOC(=O)/C=C/c1ccc(O)c(O)c1 | > 388 | 194 | > 10 |  |  |  | 
19 | O=C(/C=C/c1ccc(O)c(O)c1)OCC(OC(=O)/C=C/c1ccc(O)c(O)c1)C(=O)O (stereo not drawn) | 2.3 | 145 | 0.52 |  |  |  | 
20 | O=C(/C=C/c1ccc(O)c(O)c1)OCCCOC(=O)/C=C/c1ccc(O)c(O)c1 | > 350 | 117.5 | > 10 |  |  |  | 
21 | O=C(/C=C/c1ccc(O)c(O)c1)OC1CCCCC1OC(=O)/C=C/c1ccc(O)c(O)c1 (stereo not drawn) | > 136 | 63.6 | > 10 |  |  |  | 
22 | O=C(/C=C/c1ccc(O)cc1)OC(C(=O)O)C(OC(=O)/C=C/c1ccc(O)cc1)C(=O)O (stereo not drawn) | > 227 | 114 |  |  |  |  | 
23 | O=C(OC(C(=O)O)C(OC(=O)c1cc(O)c(O)c(O)c1)C(=O)O)c1cc(O)c(O)c(O)c1 (stereo not drawn) |  | 2.7 | 0.97 | 0.66 | 0.29 |  | 31.2
24 | O=C(OC(C(=O)O)C(OC(=O)c1cccc(O)c1O)C(=O)O)c1cccc(O)c1O (stereo not drawn) | > 38 | 19 | 1.07 |  |  |  | 
25 | O=C(/C=C/c1ccc(O)c(O)c1)O[C@@H]1C[C@@](O)(C(=O)O)CC(O)[C@@H]1OC(=O)/C=C/c1ccc(O)c(O)c1 (stereo partly drawn) | 12 | 116 | 1.4 |  |  |  | 
26 | O=C(OC(C(=O)O)C(OC(=O)c1ccc(O)c(O)c1)C(=O)O)c1ccc(O)c(O)c1 (stereo not drawn) |  | 90 | 0.43 | 0.95 | 0.82 | > 52.5 | 
27 | O=C(/C=C/c1ccccc1)OC(C(=O)O)C(OC(=O)/C=C/c1ccccc1)C(=O)O (stereo not drawn) |  | > 245 |  |  |  |  | 
28 | O=C(/C=C\c1ccc(O)c(O)c1)OC1CCCC(OC(=O)/C=C\c2ccc(O)c(O)c2)C1 (stereo not drawn) | > 68.2 | 36.4 | 1.63 |  |  |  | 
29 | O=C(/C=C/c1ccc(O)c(O)c1)O[C@@H]1CC(OC(=O)/C=C/c2ccc(O)c(O)c2)(C(=O)O)C[C@@H](O)C1O (single isomer, unassigned) [CYNARIN] | 4 | 145 | 1.6 |  |  |  | 
30 | O=C(/C=C/c1ccc(O)c(O)c1)OC(C(=O)O)C(OC(=O)/C=C/c1ccc(O)c(O)c1)C(=O)O (stereo in doubt; 1 (L)) |  | 264 |  |  |  |  | 
31 | O=C(O)/C=C/c1ccc(O)c(O)c1 [CAFFEIC ACID] | > 1390 | 1389 |  |  |  |  | 
32 | O=C(/C=C/c1ccc(O)c(O)c1)O[C@H](C(=O)O)[C@H](OC(=O)/C=C/c1ccc(O)c(O)c1)C(=O)O [CHICORIC ACID] |  | 115 |  |  |  |  | 
33 | O=C(/C=C/c1ccc(O)c(O)c1)O[C@@H]1C[C@](O)(C(=O)O)C[C@@H](O)[C@H]1O [CHLOROGENIC ACID] | > 497 | 249 |  |  |  |  | 
34 | O=C(O)[C@]1(O)C[C@@H](O)[C@@H](O)[C@H](O)C1 [QUINIC ACID] | > 1820 | 907 |  |  |  |  | 
